“Also recorded” adds a separate entry of the source.
Columns and labels:
[1] = target: T1, TRPV4 (Sus scrofa, UniProt B3VP30); test: Ca++ imaging in primary articular chondrocytes, GSK101 stimulation; type: cell-based, pig; conditions: GSK101 5 nM
T1 construct: primary cells, which express functional and biologically-relevant TRPV4 without directed over-expression of the channel; endogenous in cells; host or cells: primary porcine articular chondrocytes (femoral condyles)
Description: Figure 4 Compound 16-8 inhibits TRPV4 in I˚ cells more potently than GSK205. […] Inset: Chondrocytes responding to activation with GSK101, fura-2 Ca^++ imaging; right-hand image taken at 5 sec after GSK101 application. […] (B) I˚ astrocytes (rat); dose-response comparison between 16-8 and GSK205 in response to 5 nM GSK101. Inset: Astrocytes responding to activation with GSK101; right-hand image taken at 5 sec after GSK101 application (mean ± SEM, n = 5 independent expts, n ≥ 200 cells/expt; *p < 0.05, t-test).
Primary porcine chondrocytes derived from femoral condyles of skeletally mature pigs were cultured and subjected to Ca^++ imaging as described previously.

[2] = Stability of compound in plasma; type: in vitro ADME; conditions: 4 h incubation in plasma at 37 °C

T1 sequence (B3VP30 1-871): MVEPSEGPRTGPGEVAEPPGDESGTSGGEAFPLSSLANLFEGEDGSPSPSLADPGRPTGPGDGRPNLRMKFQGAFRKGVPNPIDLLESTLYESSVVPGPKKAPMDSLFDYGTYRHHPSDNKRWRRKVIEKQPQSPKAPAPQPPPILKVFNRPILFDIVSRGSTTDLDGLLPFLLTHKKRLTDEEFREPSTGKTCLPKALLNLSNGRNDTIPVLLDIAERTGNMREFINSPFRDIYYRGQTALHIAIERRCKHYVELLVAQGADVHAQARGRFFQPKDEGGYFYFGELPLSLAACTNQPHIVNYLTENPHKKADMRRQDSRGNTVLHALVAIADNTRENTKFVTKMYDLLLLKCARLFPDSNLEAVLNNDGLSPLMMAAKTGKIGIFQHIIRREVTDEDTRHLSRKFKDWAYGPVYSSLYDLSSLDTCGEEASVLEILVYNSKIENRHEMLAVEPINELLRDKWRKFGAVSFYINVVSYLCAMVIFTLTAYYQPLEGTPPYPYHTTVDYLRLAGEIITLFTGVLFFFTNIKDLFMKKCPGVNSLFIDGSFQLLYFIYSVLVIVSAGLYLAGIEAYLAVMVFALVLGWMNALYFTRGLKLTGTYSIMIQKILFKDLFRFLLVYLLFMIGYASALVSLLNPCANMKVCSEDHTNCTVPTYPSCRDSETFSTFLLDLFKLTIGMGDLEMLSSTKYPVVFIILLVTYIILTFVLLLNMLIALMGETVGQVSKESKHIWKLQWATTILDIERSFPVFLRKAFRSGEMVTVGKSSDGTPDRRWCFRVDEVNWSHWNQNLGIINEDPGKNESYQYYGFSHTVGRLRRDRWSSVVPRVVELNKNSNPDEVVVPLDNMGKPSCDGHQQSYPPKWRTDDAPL

For CN(CCc1ccc(Nc2nc(-c3ccccc3)cs2)cc1)Cc1ccccc1 [16-8], the “potency vs GSK205, dose-response of peak ∆Ca++” value [1] was “significantly more potent than GSK205”.

With CCN(CCc1ccc(Nc2nc(-c3ccccc3)cs2)cc1)Cc1ccccc1 [16-19] the stability in plasma [2] was “stable; also recorded: no loss of detectable compound”.
